US12123019B2, “Uses of kinase inhibitors for inducing and maintaining pluripotency” (Whitehead Institute for Biomedical Research, priority 2014, dated 2024)

What was measured:
[1] = test system: WIBR3 OCT4-ΔPE-GFP+ human ESCs; assay: Viability screen and titration: viable (DAPI-) OCT4-ΔPE-GFP+ cells after DOX withdrawal in 2i/L/SB590885; format: cell-based; conditions: for concentration giving a significant improvement in the proportion of viable GFP+ cells (titration): titration of PD0325901, CHIR99021 and SB590885, two passages after DOX withdrawal
Description: To screen for small molecules that support naïve human pluripotency, doxycycline was withdrawn from a clonal line of WIBR3 OCT4-ΔPE-GFP+ human ESCs derived in 2i/L/DOX. 24 h after Dox withdrawal, cells were dissociated in 0.25% trypsin/EDTA solution (Invitrogen) and seeded at a density of 5000 cells per individual well in 96 well plates on a MEF feeder layer in 2i/L supplemented with the ROCK-inhibitor Y-27632. After an additional 24 h, 2i/L medium in each individual 96 well was supplemented with a kinase inhibitor from the LINCS inhibitor library (Gray Laboratory, Dana Farber Cancer Institute, Boston, MA) at a final concentration of 1 μM. To improve experimental consistency the small molecule library was applied using the Caliper RapidPlate 96 well Liquid Handling System (Zymark, Westborough, MA). Briefly, a master plate containing 10 mM stock solution of the library in DMSO was first diluted to 100 μM in HEPES aqueous solution (daughter plate), and subsequently to 10 μM in N2B27 basal medium supplemented with 2i/L (granddaughter plate). This granddaughter plate was then diluted a further 10× in 2i/L medium, the final medium was pre-mixed and applied slowly to the 96 well assay plate. Following two medium changes during a seven day period the proportion of OCT4-ΔPE-GFP+ human ESCs in each well was assessed using the High-Throughput System on the LSRFortessa (Beckton-Dickinson, San Jose, CA). To screen for small molecules that improve the proportion of viable OCT4-ΔPE-GFP+ cells, this assay was modified by the addition of 1.0 μM SB590885 to each well and inclusion of a 10 minute DAPI (Life Technologies) staining prior to high-throughput FACS analysis. Viable cells were gated from the DAPI-negative fraction and subsequently assessed for GFP status.
This led us to consider whether other small molecules could cooperate with 2i/L/SB590885 to improve the fraction of viable GFP+ cells. Inclusion of a live/dead assay enhanced the resolution of the 96 well high-throughput FACS analysis, allowing for more sensitive discrimination between the proportion of viable OCT4-ΔPE-GFP+ cells cultured in 2i/L/DOX vs. 2i/L/SB590885 (FIG. 3A). This viability assay was included in a modified screen in which GFP+ cells were cultured for two passages after DOX withdrawal in 2i/L/SB590885 supplemented with the kinase inhibitor library (FIG. 3B-C and FIG. 10A). […] A titration of the concentrations of PD0325901, CHIR99021 and SB590885 was also performed during two passages after DOX withdrawal followed by high-throughput FACS analysis (FIG. 3D). […] This is reminiscent of recent evidence that lowered GSK3 inhibition reduces differentiation and enhances the self-renewal of rat ESCs (Meek et al., 2013). […]

[2] = test system: OCT4-ΔPE-GFP+ naïve human ESCs; assay: Maintenance of OCT4-ΔPE-GFP+ naïve human ESCs with additional media additives or changed basal medium; format: cell-based; conditions: for proportion of OCT4-ΔPE-GFP+ cells: inhibitor included in 5i/L/A medium, three passages
Text: The kinase inhibitors reported by Hanna and colleagues may have an additive effect in combination with the 5i/L/A medium. […] Another difference between the naïve human studies reported to date is the use of 20% knock-out serum replacement (KSR) or Albumax-containing medium (Gafni et al., 2013; Valamehr et al., 2014; Ware et al., 2014) vs. serum-free N2B27 medium (this study). The consequences of applying the inhibitor cocktail in the presence of 20% KSR was therefore investigated. […] It is concluded that the induction and maintenance of OCT4-ΔPE-GFP+ human ESCs is highly sensitive to the choice of basal medium.

[3] = test system: clonal line of OCT4-ΔPE-GFP+ cells derived in the absence of transgenes; assay: Withdrawal of single kinase inhibitors or growth factors from 5i/L/FA medium; format: cell-based, human; conditions: for differentiation and expression of pluripotency genes: FGF and Activin A removed together from 5i/L/FA
Text: To investigate the relative contribution of individual components in 5i/L/FA medium, single kinase inhibitors or growth factors were removed from a clonal line of OCT4-ΔPE-GFP+ cells derived in the absence of transgenes. […] Therefore, the maintenance of OCT4-ΔPE-GFP reporter activity is dependent primarily on MEK inhibition and BRAF inhibition, while robust proliferation of GFP+ cells requires ROCK inhibition. Recombinant FGF enhances the induction of naïve reporter activity, but can be omitted in established GFP+ cells.

[4] = test system: OCT4-ΔPE-GFP-negative (primed) human ESCs; assay: Removal of latent OCT4-ΔPE-GFP-negative cells during 2i/L/DOX induction; format: cell-based; conditions: additional treatment with 0.1 μM PD173074 and 5 μM SB431542 upon addition of 2i/L/DOX
Text: VSVG coated lentiviruses were generated in HEK-293 cells as described previously (Brambrink et al., 2008; Soldner et al., 2009; Soldner et al., 2011). Briefly, culture medium was changed 12 hr post-transfection and virus-containing supernatant was collected 48 to 72 hr post transfection. Viral supernatant was filtered through a […] filter. Virus-containing supernatants of the 2 reprogramming viruses (FUW-tetO-lox-hKLF2 and FUW-tetO-lox-hNANOG) were pooled and supplemented with the FUW-lox-M2rtTA virus and an equal volume of fresh culture medium. 1×10^6 human ESCs were seeded 24 hr before transduction in T75 flasks on matrigel in mTesr1 medium (STEMCELL Technologies). Two consecutive infections in the presence of […] of polybrene were performed over a period of 24 hr. Culture medium was changed 12 hr after the last infection. Five days after transduction, human ESCs were passaged using 0.25% trypsin/EDTA solution (Invitrogen) and re-plated on mitomycin C inactivated mouse embryonic fibroblast (MEF) feeder layers in conventional human ESC medium. To induce conversion to the naïve state, human ESCs were trypsinized and seeded at a density of 1×10^5 cells per 6 individual well on a MEF feeder layer in presence of ROCK inhibitor Y-27632. […]

[5] = test system: transgene-dependent naïve human ES cells (subclone of WIBR3); assay: Titration and proliferation assay in transgene-dependent naïve human ES cell line after DOX withdrawal (GSK3/Wnt signal modulators); format: cell-based; conditions: added to 4i/L/A: CHIR99021 1 μM replacing IM12, or IWR1 2.5 μM
Description: A transgene-dependent naïve human embryonic stem (ES) cell line, a subclone of WIBR3, was used to titrate different concentrations of inhibitors in 5i/L/A (see Theunissen et al., Cell Stem Cell, 2014). The cell line used is dependent on Doxycycline (DOX) to maintain the expression of two lentiviral transgenes, KLF2 and NANOG. […] A titration assay was performed to determine the optimal concentrations of small molecule inhibitors to maintain naïve human DES cells. The cells were subject to sequential passaging by single cell dissociation at low density (1:10) under four conditions: 2i/L, 5i/L/A, t5i/L/A (0.2 μM GSK3 inhibitor IM12) and 4i/L/A (removal of GSK3 inhibitor IM12).
The proliferation of naïve human ES cells in the presence of different Wnt signal modulators was quantified after the withdrawal of DOX from the transgene-dependent cell line described above. In a six-well plate, 1×10^5 cells were seeded per well and cells were dissociated and re-seeded at a 1:5 density for three successive passages. Cell numbers at successive passages were recorded under six conditions (n=2 per group): 2i/L/DOX (control), 2i/L, 5i/L/A, 4i/L/A (removal of GSK3 inhibitor IM12), 4i/L/A+CHIR99021 (1 μM), and 4i/L/A+IWR1 (2.5 μM).

[6] = test system: OCT4-ΔPE-GFP+ human ESCs; assay: Validation of hit compounds in 6 well format: DOX withdrawal and culture in 2i/L plus hit compound; format: cell-based
Text: To identify compounds that sustain OCT4-ΔPE-GFP activity in the absence of KLF2 and NANOG expression, a kinase inhibitor library was screened in the presence of 2i/L for a period of 7 days after DOX withdrawal in 96 well format (FIG. 2A). This screen identified 10 different hit compounds that partially rescued the proportion of GFP+ cells when assayed by high-throughput FACS analysis (FIG. 2B-C and FIG. 9A). Notable among these hits were four separate inhibitors of BRAF and four inhibitors of upstream receptor tyrosine kinases (RTKs), including DDR1, VEGFR1 and FGFR1. A validation experiment was then performed in 6 well format by withdrawing DOX and culturing the cells in 2i/L supplemented with each hit compound for up to 10 passages (FIG. 2D). Nearly all hit compounds maintained a proportion of GFP+ cells similar to that observed with DOX. […] Gene expression analysis 5 passages after DOX withdrawal confirmed the absence of KLF2 and NANOG transgene expression and retention of endogenous OCT4 and GFP transcripts (FIG. 2E and FIG. 9B). To validate these findings in an independent system DOX-inducible KLF2 and NANOG transgenes were introduced in a line of wild-type WIBR3 human ESCs. Upon application of DOX and 2i/L, dome-shaped colonies appeared that could be expanded clonally.

[7] = three passages after withdrawal of the component from 5i/L/FA

`Cc1[nH]c2ccccc2c1C1=C(NCCc2ccc(F)cc2)C(=O)N(C)C1=O` [IM12] was tested, and the “morphology upon long-term culture without DOX” value ([1]; CHIR99021 replaced with IM12) was “improved morphology”.

insulin: media additive was tested, and the “beneficial effect of additive” value ([2]; insulin added) was “A beneficial effect was not observed”.

In the case of `O=C(NOC[C@H](O)CO)c1ccc(F)c(F)c1Nc1ccc(I)cc1F` [PD0325901], the OCT4-ΔPE-GFP reporter activity [3, 7] is reported as “rapid and widespread loss”, the colony morphology [3, 7] is reported as “rapid and widespread loss” and the pluripotency gene expression [3, 7] is reported as “rapid and widespread loss”. The “concentration giving a significant improvement in the proportion of viable GFP+ cells (titration)” value [1] was 1 µM.

With `NC(=O)c1ccc(-c2nc(-c3ccc4c(c3)OCO4)c(-c3ccccn3)[nH]2)cc1` [SB431542] the “latent OCT4-ΔPE-GFP-negative cells” value [4] was “removed almost entirely”.

In the case of “FGF: recombinant fibroblast growth factor 2 (R&D systems, 8 ng/mL)”, the “differentiation and expression of pluripotency genes” value [3] is reported as “more differentiation and reduced expression” and the “any of the parameters examined” value ([3]; withdrawal of FGF from 5i/L/FA) is reported as “no apparent effect”.

For “hLIF: recombinant human LIF (made in-house)”, the OCT4-ΔPE-GFP reporter activity [3, 7] was “unaffected” and the pluripotency gene expression [3, 7] was “unaffected”.

In the case of “Activin A: cytokine (Peprotech, 20 ng/mL)”, the “differentiation and expression of pluripotency genes” value [3] is reported as “more differentiation and reduced expression” and the OCT4-ΔPE-GFP reporter activity [3, 7] is reported as “did not cause a reduction”.

In the case of `O=C1c2ccccc2-c2n[nH]c3cccc1c23` [SP600125], the “expression of KLF4 and KLF2” value ([2]; SP600125 added to 5i/L/A) is reported as “increase in expression of KLF4 and KLF2” and the “proportion of OCT4-ΔPE-GFP+ cells” value [2] is reported as “did not affect”.

`Cc1cnc(-c2cnc(NCCNc3ccc(C#N)cn3)nc2-c2ccc(Cl)cc2Cl)[nH]1` [CHIR99021] was tested, and the “proportion of viable GFP+ cells” value ([1]; higher concentrations of CHIR99021) was “opposite effect”, the “proportion of viable GFP+ cells” value ([1]; lower concentrations of CHIR99021) was “improved the proportion of viable GFP+ cells” and the “concentration giving a significant improvement in the proportion of viable GFP+ cells (titration)” value [1] was 0.3 µM. The “proliferation of naïve human cells (cell number)” value [5] was “did not further stimulate the proliferation”.

With `Cc1ccc(-n2nc(C(C)(C)C)cc2NC(=O)Nc2ccc(OCCN3CCOCC3)c3ccccc23)cc1` [BIRB796] the “proportion of OCT4-ΔPE-GFP+ cells” value [2] was “did not affect”.

In the case of `O=C(Nc1cccc2cccnc12)c1ccc(N2C(=O)[C@@H]3[C@H](C2=O)[C@@H]2C=C[C@H]3C2)cc1` [IWR1], the “proliferation of naïve human cells (cell number)” value [5] is reported as “did not further stimulate the proliferation”.

`CC(N)C1CCC(C(=O)Nc2ccncc2)CC1` (stereo not shown) [Y-27632] was tested, and the proliferation [3, 7] was “significant reduction” and the “proportion of viable GFP+ cells” value ([1]; Y-27632 (10 μM) added to 2i/L/SB590885 (0.5 μM), two passages) was “improved the proportion of viable GFP+ cells”.

With `CN(C)CCOc1ccc(-c2nc(-c3ccncc3)c(-c3ccc4c(c3)CC/C4=N\O)[nH]2)cc1` [SB590885] the OCT4-ΔPE-GFP reporter activity [3, 7] was “rapid and widespread loss”, the colony morphology [3, 7] was “rapid and widespread loss” and the pluripotency gene expression [3, 7] was “rapid and widespread loss”. The “viability (FACS-based live/dead discrimination assay)” value ([1]; cells maintained in 2i/L/SB590885) was “reduced viability”, the “concentration giving a significant improvement in the proportion of viable GFP+ cells (titration)” value [1] was 0.5 µM and the “colony morphology and proliferation” value ([6]; 6 well, 2i/L plus hit compound, up to 10 passages without DOX) was “preserved the best colony morphology and proliferation”. The “colony morphology and expression of endogenous OCT4” value ([6]; wild-type WIBR3 lines with DOX-inducible KLF2 and NANOG, maintained in 2i/L/SB590885 after DOX withdrawal) was “retaining both colony morphology and the expression of endogenous OCT4”.

With `COc1ccc(N(C(=O)Oc2c(C)cccc2C)c2ccnc(Nc3ccc(N4CCN(C)CC4)cc3)n2)c(OC)c1` [WH-4-023] the OCT4-ΔPE-GFP reporter activity [3, 7] was “slight reduction”, the colony morphology [3, 7] was “change in morphology” and the “proportion of viable OCT4-ΔPE-GFP+ cells after DOX withdrawal” value ([1]; 1 μM WH-4-023 combined with optimized concentrations of PD0325901, CHIR99021 and SB590885) was “further improved”. The “fraction of viable GFP+ cells” value ([1]; two passages after DOX withdrawal in 2i/L/SB590885 supplemented with kinase inhibitor library) was “improved the fraction of viable GFP+ cells”.
